Reference: patent US20060178307A1, “Modulation of NMDA receptor currents via orexin receptor and/or CRF receptor” (priority 2005, published 2006)
Where no end group is shown, it is not given here.

Columns and labels:
cocaine reinforcement = assay: Operant cocaine self-administration, progressive ratio schedule; assay type: in vivo, rats; details: 10 mg/kg i.p. on 4th day of progressive ratio, n=12
Protocol: Rats were cannulated with an intra-venous cannula to their jugular vein. After one week to 10 days of recovery, the animals were trained to lever press for cocaine (0.5 mg/infusion, 2 second infusion) in Coulburn self-administration boxes. A tone and light above the active lever signalled during a press for cocaine and then a 20 second timeout followed the active lever press.
After 3-4 weeks of self-administration of cocaine (0.5 mg/infusion) ramping from fixed ratio of 1 lever press (FR1) to receive a reward to a stable fixed ratio of 5 lever presses to receive a reward (FR5) schedule, animals lever pressed for cocaine on a progressive ratio schedule for 4 days. On the second and third day, each animal received a vehicle injection (i.p.), and on the fourth day the animals received an injection (i.p.) of the OXR1 antagonist: SB334867, 10 mg/kg. As a control, orexin modulation of food self-administration was examined under the same paradigm. For food self-administration, animals were trained to an FR5 schedule for food pellets.

[1] = system: AMPAR/NMDAR ratio of EPSCs in VTA dopamine cells; assay: AMPAR/NMDAR ratio in VTA slices 24 hr after 5-day in vivo treatment; parameters: species or system rat; details: 5 days
Protocol: The next study investigated whether orexin signaling in the VTA is required for the long-term plasticity associated with the development of behavioral sensitization. Long-term synaptic plasticity at excitatory synapses on VTA neurons was examined 24 hr after a 5-day treatment of cocaine (15 mg/kg) or saline (0.9%), a time course shown to induce long-lasting locomotor sensitization to cocaine (Thomas et al., 2001), with or without the OXR1 antagonist, SB 334867 (10 mg/kg, FIG. 5). To assay for synaptic plasticity, the relative contributions of AMPARs and NMDARs to EPSCs recorded in VTA dopamine cells were compared. Consistent with the potentiation observed following acute and 7-day cocaine treatments (Borgland et al., 2004), 5-day treatment with cocaine potentiated the AMPAR/NMDAR ratio compared to saline controls (FIG. 5A, saline: 0.4±0.07, n=4; cocaine: 0.8±0.1, n=4, p<0.05). This potentiation of synaptic plasticity was blocked by 5-day treatment with the OXR1 antagonist, SB 334867, administered 15 min prior to cocaine or saline (FIG. 5A, saline+SB334867: 0.4±0.02, n=5 vs. cocaine+SB334867: 0.5±0.08, n=11, p>0.05). Since OXR1 antagonists block cocaine-mediated potentiation of the AMPAR/NMDAR ratio, orexin A may either facilitate cocaine-mediated synaptic plasticity or enhance synaptic transmission itself. A 5-min orexin A application was performed to determine whether this caused changes in AMPAR/NMDAR ratio either 15 min or 3-4 hours after application (FIG. 5B).
(§1) To calculate the AMPAR/NMDAR ratio, an average of 12 EPSCs at +40 mV was computed before and after application of the NMDAR blocker, AP5 (50 μM) for 5 min. NMDAR responses were calculated by subtracting the average response in the presence of AP5 (AMPAR only) from that seen in its absence; the peak of the AMPAR EPSC was divided by the peak of the NMDAR EPSC to yield an AMPAR/NMDAR ratio.
Male Sprague-Dawley Rats (P21-P30; Charles River, N.C.) were singly housed with food and water available ad libitum. A 12 hr light/dark cycle was used, with the lights on at 7:00 A.M. All cocaine injections and behavioral testing were performed during the light cycle for consecutive days. The four treatment groups consisted of rats given 5 daily i.p. injections of SB 334867 (10 mg/kg) 15 min preceding i.p. injection of cocaine (15 mg/kg) or saline (0.9% NaCl), or i.p. injections of vehicle (10% DMSO and 25% β-hydroxy cyclodextrin in saline) 15 min preceding i.p. injection of cocaine or saline. […] Locomotor activity was measured in 17″×17″ chambers lined with three 16-beam I/R arrays. […] Distance traveled was measured using Open Field Activity Software (Med Associates, Inc) and analyzed for estimates of locomotion based on the movement of a given distance and resting delay (movement in a given period of time).

[2] = system: AMPAR/NMDAR ratio of EPSCs in VTA dopamine cells; assay: AMPAR/NMDAR ratio after 5-min bath application to VTA slices; assay type: cell-based, rat; details: orexin A 100 nM 5 min, n=8
Protocol: The next study investigated whether orexin signaling in the VTA is required for the long-term plasticity associated with the development of behavioral sensitization. Long-term synaptic plasticity at excitatory synapses on VTA neurons was examined 24 hr after a 5-day treatment of cocaine (15 mg/kg) or saline (0.9%), a time course shown to induce long-lasting locomotor sensitization to cocaine (Thomas et al., 2001), with or without the OXR1 antagonist, SB 334867 (10 mg/kg, FIG. 5). To assay for synaptic plasticity, the relative contributions of AMPARs and NMDARs to EPSCs recorded in VTA dopamine cells were compared. Consistent with the potentiation observed following acute and 7-day cocaine treatments (Borgland et al., 2004), 5-day treatment with cocaine potentiated the AMPAR/NMDAR ratio compared to saline controls (FIG. 5A, saline: 0.4±0.07, n=4; cocaine: 0.8±0.1, n=4, p<0.05). […]
as §1

NMDAR mEPSCs = NMDAR mEPSCs in Mg2+-free buffer at −40 mV; assay type: cell-based, rat
Protocol: To examine changes in number or function of NMDARs after orexin treatment NMDAR mEPSCs were recorded in buffer without Mg^2+, and in the presence CNQX (10 μM), glycine (20 μM) and lidocaine (500 μM). Orexin A (100 nM) caused a significant increase in amplitude in NMDAR mEPSCs 15 min after application (17.1±0.7 pA, n=8, FIG. 7B,D,F) compared to untreated neurons (14.2±0.9 pA, n=8, FIG. 7A,D,F) or at 3-4 hours after orexin A application (13.9±0.5 pA, n=7, FIG. 7C,D,F).
AMPAR mEPSCs were recorded in cells voltage-clamped at −70 mV in lidocaine (500 μM), APV (50 μM) and sucrose (100 mM). NMDAR mEPSCs were recorded at −40 mV in Mg2+-free external solution with lidocaine (500 μM), glycine (20 μM), and CNQX (10 μM). mEPSCs were collected using Clampex (Axon Instruments) and analyzed using Mini Analysis Program (Synaptosoft). Detection criteria were set at >10 pA, <1 ms rise-time, and <3 ms decay-time for AMPAR mEPSCs and >10 pA, <1 ms rise-time, and <10 ms decay-time for NMDAR mEPSCs. mEPSC traces were recorded while sampling every 10 μs, the images were filtered at 5 kHz. Averaged mEPSCs were constructed using Mini Analysis Program (Synaptosoft).

Row | Molecule | breakpoint (cocaine) (cocaine reinforcement) | natural log of active lever presses for cocaine (cocaine reinforcement) | raw active lever presses for cocaine (cocaine reinforcement) | total number of cocaine infusions (cocaine reinforcement) | effect on cocaine-induced potentiation of AMPAR/NMDAR ratio ([1]; 10 mg/kg i.p. 15 min prior to cocaine) | AMPAR/NMDAR ratio ([1]; cocaine 15 mg/kg + SB334867 10 mg/kg 15 min prior, n=11) | AMPAR/NMDAR ratio ([1]; saline + SB334867 10 mg/kg 15 min prior, n=5) | AMPAR/NMDAR ratio ([2]; 15 min after treatment) | AMPAR/NMDAR ratio ([2]; after 3-4 hours) | frequency of NMDAR mEPSCs (NMDAR mEPSCs; 3-4 hours after orexin A) | NMDAR mEPSC amplitude (NMDAR mEPSCs; 3-4 hours after orexin A, n=7) | frequency of NMDAR mEPSCs (NMDAR mEPSCs; 15 min after orexin A) | NMDAR mEPSC amplitude (NMDAR mEPSCs; 15 min after orexin A 100 nM, n=8)
1 | Cc1nc2ccc(NC(=O)Nc3ccnc4cccnc34)cc2o1.Cl [SB 334867, 1-(2-methylbenzoxazol-6-yl)-3-[1,5]naphthyridin-4-yl urea hydrochloride] | reduced | reduced | reduced | decreased | blocked | 0.5±0.08 | 0.4±0.02 |  |  |  |  |  | 
2 | orexin A: neuropeptide synthesized in neurons of the LH; orexin receptor agonist selective for the OXR1 receptor (QPLPDCCRQKTCSCRLYELLHGAGNHAAGILTL; ends and bridges not checked; cysteine pairing not given here; UniProt O43612 34-66, looked up) |  |  |  |  |  |  |  | 0.29±0.04 | 0.75±0.1 | 2.5±0.4 | 13.9±0.5 pA | 2.1±0.3 | 17.1±0.7 pA
